Drawing on PubChem BioAssay AID1259407 (Chemical Carcinogenesis Research Information System (CCRIS), 2018), this text covers mutagenic call for seven compounds.

The source made the active and inactive calls. How the calls were made is not given here.

This data set deals with CCRIS mutagenicity, Ames/micronucleus/aberration tests. Briefly: CCRIS mutagenicity studies.
Setting [1] is: Test System: AMES SALMONELLA TYPHIMURIUM, Strain/Indicator: TA98, Metabolic Activation: NONE, Method: PREINCUBATION
[2] abbreviates: Test System: AMES SALMONELLA TYPHIMURIUM, Strain/Indicator: TA100, Metabolic Activation: NONE, Method: PREINCUBATION
Where [3] appears, read: Test System: AMES SALMONELLA TYPHIMURIUM, Strain/Indicator: TA1535, Metabolic Activation: NONE, Method: PREINCUBATION
The mark [4] stands for this setting: Test System: AMES SALMONELLA TYPHIMURIUM, Strain/Indicator: TA98, Metabolic Activation: NONE, Method: STANDARD PLATE.
Where [5] appears, read: Test System: AMES SALMONELLA TYPHIMURIUM, Strain/Indicator: TA100, Metabolic Activation: NONE, Method: STANDARD PLATE.

In the case of `Cc1ccccc1C(N)=O`, the mutagenic call (Test System: AMES SALMONELLA TYPHIMURIUM, Strain/Indicator: TA97, Metabolic Activation: HAMSTER, LIVER, S-9, AROCLOR 1254 (10 OR 30%), Method: PREINCUBATION) was “inactive; negative”; the mutagenic call (Test System: AMES SALMONELLA TYPHIMURIUM, Strain/Indicator: TA97, Metabolic Activation: NONE, Method: PREINCUBATION) was “inactive; negative”; the mutagenic call (Test System: AMES SALMONELLA TYPHIMURIUM, Strain/Indicator: TA97, Metabolic Activation: RAT, LIVER, S-9, AROCLOR 1254 (10 OR 30%), Method: PREINCUBATION) is “inactive; negative”; the mutagenic call (Test System: AMES SALMONELLA TYPHIMURIUM, Strain/Indicator: TA98, Metabolic Activation: HAMSTER, LIVER, S-9, AROCLOR 1254 (10 OR 30%), Method: PREINCUBATION) was “inactive; negative”; the mutagenic call under setting [1] is “inactive; negative”; the mutagenic call (Test System: AMES SALMONELLA TYPHIMURIUM, Strain/Indicator: TA98, Metabolic Activation: RAT, LIVER, S-9, AROCLOR 1254 (10 OR 30%), Method: PREINCUBATION) is “inactive; negative”. Also, the mutagenic call was “inactive; negative” (Test System: AMES SALMONELLA TYPHIMURIUM, Strain/Indicator: TA100, Metabolic Activation: HAMSTER, LIVER, S-9, AROCLOR 1254 (10 OR 30%), Method: PREINCUBATION); “inactive; negative” under setting [2]; “inactive; negative” (Test System: AMES SALMONELLA TYPHIMURIUM, Strain/Indicator: TA100, Metabolic Activation: RAT, LIVER, S-9, AROCLOR 1254 (10 OR 30%), Method: PREINCUBATION); “inactive; negative” (Test System: AMES SALMONELLA TYPHIMURIUM, Strain/Indicator: TA1535, Metabolic Activation: HAMSTER, LIVER, S-9, AROCLOR 1254 (10 OR 30%), Method: PREINCUBATION); “inactive; negative” under setting [3]; “inactive; negative” (Test System: AMES SALMONELLA TYPHIMURIUM, Strain/Indicator: TA1535, Metabolic Activation: RAT, LIVER, S-9, AROCLOR 1254 (10 OR 30%), Method: PREINCUBATION).
Take `O=CC1C=COC=C1`: the mutagenic call is “inactive; negative” under setting [4]; “inactive; negative” (Test System: AMES SALMONELLA TYPHIMURIUM, Strain/Indicator: TA98, Metabolic Activation: RAT, LIVER, S-9, PHENOBARBITAL, Method: STANDARD PLATE); “inactive; negative” under setting [5]; “inactive; negative” (Test System: AMES SALMONELLA TYPHIMURIUM, Strain/Indicator: TA100, Metabolic Activation: RAT, LIVER, S-9, PHENOBARBITAL, Method: STANDARD PLATE); “inactive; negative” (Test System: AMES SALMONELLA TYPHIMURIUM, Strain/Indicator: TM677/8-AZAGUANINE, Metabolic Activation: NONE, Method: STANDARD PLATE).
Regarding `O[C@@H]1C=Cc2c(ccc3c2sc2ccccc23)[C@H]1O`, the mutagenic call (Test System: AMES SALMONELLA TYPHIMURIUM, Strain/Indicator: TA100, Metabolic Activation: RAT, LIVER, S-9, AROCLOR 1254, Method: PREINCUBATION) was “active; positive”.
As for `O=C(CC(O)(CC(=O)OCCBr)C(=O)OCCBr)OCCBr`, the mutagenic call is, setting by setting: under setting [5], “inactive; negative”; (Test System: AMES SALMONELLA TYPHIMURIUM, Strain/Indicator: TA100, Metabolic Activation: RAT, LIVER, S-9, AROCLOR 1254, Method: STANDARD PLATE) “active; positive”.
`COc1cc(-c2ccc(N/N=C3/C(=O)c4c(N)cc(S(=O)(=O)O)cc4C=C3S(=O)(=O)O)c(OC)c2)ccc1N/N=C1/C(=O)c2c(N)cc(S(=O)(=O)O)cc2C=C1S(=O)(=O)O`: the mutagenic call was “inactive; negative” (End Point: IN VITRO CHROMOSOMAL ABERRATIONS, Test System: CHINESE HAMSTER OVARY CELLS, Metabolic Activation: NONE); “inactive; negative” (End Point: IN VITRO CHROMOSOMAL ABERRATIONS, Test System: CHINESE HAMSTER OVARY CELLS, Metabolic Activation: RAT, LIVER, S-9, AROCLOR 1254); “active; positive” (Test System: AMES SALMONELLA TYPHIMURIUM, Strain/Indicator: SV50, Metabolic Activation: HAMSTER, LIVER, S-9, Method: PREINCUBATION (PRIVAL METHOD)); “active; positive” (Test System: AMES SALMONELLA TYPHIMURIUM, Strain/Indicator: SV50, Metabolic Activation: RAT, LIVER, S-9, AROCLOR 1254, Method: PREINCUBATION (PRIVAL METHOD)); “inactive; negative” (Test System: AMES SALMONELLA TYPHIMURIUM, Strain/Indicator: TA98, Metabolic Activation: HAMSTER, LIVER, S-9, AROCLOR 1254 (10%), Method: PREINCUBATION); “active; positive” (Test System: AMES SALMONELLA TYPHIMURIUM, Strain/Indicator: TA98, Metabolic Activation: HAMSTER, LIVER, S-9, Method: PREINCUBATION (PRIVAL METHOD)). The mutagenic call was “inactive; negative” under setting [1]; “inactive; negative” (Test System: AMES SALMONELLA TYPHIMURIUM, Strain/Indicator: TA98, Metabolic Activation: RAT, LIVER, S-9, AROCLOR 1254 (10%), Method: PREINCUBATION); “active; positive” (Test System: AMES SALMONELLA TYPHIMURIUM, Strain/Indicator: TA98, Metabolic Activation: RAT, LIVER, S-9, AROCLOR 1254, Method: PREINCUBATION (PRIVAL METHOD)); “inactive; negative” (Test System: AMES SALMONELLA TYPHIMURIUM, Strain/Indicator: TA100, Metabolic Activation: HAMSTER, LIVER, S-9, AROCLOR 1254 (10%), Method: PREINCUBATION); “inactive; negative” under setting [2]; “inactive; negative” (Test System: AMES SALMONELLA TYPHIMURIUM, Strain/Indicator: TA100, Metabolic Activation: RAT, LIVER, S-9, AROCLOR 1254 (10%), Method: PREINCUBATION). Also, the mutagenic call runs as follows: (Test System: AMES SALMONELLA TYPHIMURIUM, Strain/Indicator: TA1535, Metabolic Activation: HAMSTER, LIVER, S-9, AROCLOR 1254 (10%), Method: PREINCUBATION) “inactive; negative”; under setting [3], “inactive; negative”; (Test System: AMES SALMONELLA TYPHIMURIUM, Strain/Indicator: TA1535, Metabolic Activation: RAT, LIVER, S-9, AROCLOR 1254 (10%), Method: PREINCUBATION) “inactive; negative”; (Test System: AMES SALMONELLA TYPHIMURIUM, Strain/Indicator: TA1537, Metabolic Activation: HAMSTER, LIVER, S-9, AROCLOR 1254 (10%), Method: PREINCUBATION) “inactive; negative”; (Test System: AMES SALMONELLA TYPHIMURIUM, Strain/Indicator: TA1537, Metabolic Activation: NONE, Method: PREINCUBATION) “inactive; negative”; (Test System: AMES SALMONELLA TYPHIMURIUM, Strain/Indicator: TA1537, Metabolic Activation: RAT, LIVER, S-9, AROCLOR 1254 (10%), Method: PREINCUBATION) “inactive; negative”. Further, the mutagenic call (Test System: AMES SALMONELLA TYPHIMURIUM, Strain/Indicator: TA1538, Metabolic Activation: FLAVIN MONONUCLEOTIDE REDUCTION, HAMSTER, LIVER, S-9, Method: PREINCUBATION) was “active; positive”; the mutagenic call (Test System: AMES SALMONELLA TYPHIMURIUM, Strain/Indicator: TA1538, Metabolic Activation: RAT, CECAL BACTERIAL REDUCTION, S-9, AROCLOR 1254, Method: PREINCUBATION) was “active; positive”; the mutagenic call (Test System: AMES SALMONELLA TYPHIMURIUM, Strain/Indicator: TA1538, Metabolic Activation: RAT, LIVER, S-9, AROCLOR 1254, Method: PREINCUBATION) is “active; positive”; the mutagenic call (Test System: AMES SALMONELLA TYPHIMURIUM, Strain/Indicator: TA1538, Metabolic Activation: RAT, LIVER, S-9, AROCLOR 1254, Method: STANDARD PLATE) is “active; positive”.
As for `CC(=O)Nc1ccc2ccc3ccc(O)c4ccc1c2c34`, the mutagenic call is “inactive; negative” (Test System: AMES SALMONELLA TYPHIMURIUM, Strain/Indicator: TA98(1,8-DNP6), Metabolic Activation: NONE, Method: STANDARD PLATE); “inactive; negative” (Test System: AMES SALMONELLA TYPHIMURIUM, Strain/Indicator: TA98(1,8-DNP6), Metabolic Activation: RAT, LIVER, S-9, AROCLOR 1254, Method: STANDARD PLATE); “inactive; negative” (Test System: AMES SALMONELLA TYPHIMURIUM, Strain/Indicator: YG1024, Metabolic Activation: NONE, Method: STANDARD PLATE); “inactive; negative” (Test System: AMES SALMONELLA TYPHIMURIUM, Strain/Indicator: YG1024, Metabolic Activation: RAT, LIVER, S-9, AROCLOR 1254, Method: STANDARD PLATE).
Consider `O=[N+]([O-])c1c2ccccc2c([N+](=O)[O-])c2ccccc12`, for which the mutagenic call under setting [4] is “inactive; negative”.
